# Tested on: muscle and mitochondrial gene sets in vastus lateralis
# Experiment: Microarray analysis / Gene Set Enrichment Analysis of skeletal muscle biopsies
# Format: in vivo, human
# Procedure: Muscle biopsies were collected on Day −1 and Day 28 at pre-dose under fasted state using the Bergström biopsy needle technique. The minimal amount of each muscle tissue sample was approximately 50 mg. One third of the tissue was used for gene expression (≈50 mg), and was further divided into two equal portions: one portion for RNA analysis (≈25 mg) and one portion for DNA analysis (≈25 mg), both in a Safe-lock Tubes 2.0 ml, Eppendorf (part no. 0030.120.094). Muscle tissue was snap frozen using liquid nitrogen immediately after collection and further, long term storage will be in a −80° C. freezer. The mRNA was analysed by microarray. Quantification of mtDNA over nuclear DNA provided another measure of mitochondrial abundance. The shipment was done in dry ice by specialized carrier. Temperatures were monitored using data logger during all transport. Gene expression on available remaining muscle tissues samples was performed by microarrays. […] Microarray analysis was carried out on skeletal muscle biopsies of human subjects administered urolithin A or placebo daily for 28 days. Approximately 30,000 gene transcripts were quantified by microarray in muscle biopsies and compared (day 28 vs. day −1). Gene Set Enrichment Analysis was conducted on 6166 gene sets. […]
smiles,measurement,setting,value
O=c1oc2cc(O)ccc2c2ccc(O)cc12 [Urolithin A],enrichment in GO_MITOCHONDRION genes expression,"1000 mg urolithin A group vs placebo group, 28 day treatment",significant
same,mitochondrial and muscle gene sets expression (normalized enrichment score),"1000 mg/day for 28 days, day 28 vs day −1, compared with placebo, FDR<0.25",significantly upregulated
